{"source": "patent US20220054494A1", "about": "“METHODS FOR TREATING BLADDER AND URETHRA DYSFUNCTION AND DISEASE” (University of Pittsburgh - Of the Commonwealth System of …, priority 2019, published 2022)", "type_in_all_cases": "in vivo, rat", "key": {"MCP-1": {"test_system": "MCP-1", "test": "RT-qPCR of bladder MCP-1 mRNA in CYP cystitis model", "details": "CYP (75 mg/kg i.p.) female Sprague Dawley rats; oral 8-AG 5 mg/kg/day starting one week prior to CYP", "protocol": "Animals: Female Sprague Dawley rats were employed in this example (Charles River; Wilmington, Mass.). Three groups of animals were included. Group 1 received an i.p. injection of saline and was used as a control; groups 2 and 3 received an i.p. injection of cyclophosphamide (CYP, SIGMA-ALDRICH®, St Louis, Mo., day 0, 3, 6, sacrifice day 8, 75 mg/kg, i.p.) with group 3 treated with oral 8-AG (5 mg/kg/day; starting one week prior to CYP). CYP induced bladder inflammation and is a well-established pre-clinical model for BPS/IC.\nRT-qPCR: Total RNA was isolated from bladders using TRIZOL® Reagent (THERMO FISHER SCIENTIFIC®; Waltham, Mass.) according to the manufacturer's instructions. The cDNA was synthesized using ISCRIPT™ cDNA synthesis kit (BIO-RAD®). qPCR analysis was performed using Power SYBR™ Green PCR Master Mix (THERMO FISHER SCIENTIFIC®) in the APPLIED BIOSYSTEMS® QUANTSTUDIO™ 3 Real-Time PCR System (THERMO FISHER SCIENTIFIC®). The primers used were as follows: for IL-1beta, 5′-[…]-3′ (forward; SEQ ID NO: 1) and 5′-[…]-3′ (reverse; SEQ ID NO: 2); for MCP-1, 5′-[…]-3′ (forward; SEQ ID NO: 3) and 5′-[…]-3′ (reverse; SEQ ID NO: 4); for β-actin, 5′-ACTCTTCCAGCCTTCCTTC-3′ (forward; SEQ ID NO: 5) and 5′-[…]-3′ (reverse; SEQ ID NO: 6). The threshold cycle (Ct) for target was subtracted from Ct for β-actin to give ΔCt. Results are expressed as 2AC."}, "aged rats": {"test_system": "aged rats", "test": "Voiding analysis in metabolic cages, aged rats"}, "p16": {"test_system": "p16", "test": "Western immunoblotting, senescence marker p16", "protocol": "Western immunoblotting and transmission electron microscopy: Following these testing paradigms, rats were deeply anesthetized, bladders were removed, and one half of each bladder (using the smooth muscle layer) was homogenized using Lysing Matrix D in a FASTPREP-24™ instrument (MP BIOMEDICALS™, Solon, Ohio) in HBSS (5 mM KCl, 0.3 mM KH2PO4, 138 mM NaCl, 4 mM NaHO3, 0.3 mM Na2HCO3, 0.3 mM Na2HPO4, 5.6 mM glucose and 10 mM Hepes, pH 7.4) containing complete protease inhibitor cocktail (1 tablet/10 ml, ROCHE™, Indianapolis, Ind.) and phosphatase inhibitor cocktail (SIGMA®, 1:100). Whole rat kidney was also homogenized using the same procedure. After centrifugation (13000 rpm; 15 min at 4° C.), the membrane protein fraction was prepared by suspending the membrane pellets in lysis buffer containing 0.3 M NaCl, 50 mM Tris-HCl (pH 7.6), 0.5% Triton X-100, and the same concentration of protease inhibitors as above. […] The protein concentrations of the combined supernatants were determined using the PIERCE™ BCA protein assay (THERMO SCIENTIFIC™, Rockford, Ill.). […] As a loading control, total protein per sample was determined using BIO-RAD™ Stain Free SDS-PAGE gel technology. UV-activated protein fluorescence was imaged on a CHEMIDOC™ MP (BIO-RAD™). […] The volume (intensity) of each protein species was determined and normalized to total protein using Image Lab software (BIO-RAD™). […]"}, "AVP receptor V2": {"test_system": "AVP receptor V2", "test": "Western immunoblotting, kidney V2 vasopressin receptor", "details": "aged Fisher 344 rats; 8-AG 5 mg kg/day via drinking water, 1 month", "protocol": "Western immunoblotting and transmission electron microscopy: Following these testing paradigms, rats were deeply anesthetized, bladders were removed, and one half of each bladder (using the smooth muscle layer) was homogenized using Lysing Matrix D in a FASTPREP-24™ instrument (MP BIOMEDICALS™, Solon, Ohio) in HBSS (5 mM KCl, 0.3 mM KH2PO4, 138 mM NaCl, 4 mM NaHO3, 0.3 mM Na2HCO3, 0.3 mM Na2HPO4, 5.6 mM glucose and 10 mM Hepes, pH 7.4) containing complete protease inhibitor cocktail (1 tablet/10 ml, ROCHE™, Indianapolis, Ind.) and phosphatase inhibitor cocktail (SIGMA®, 1:100). Whole rat kidney was also homogenized using the same procedure. After centrifugation (13000 rpm; 15 min at 4° C.), the membrane protein fraction was prepared by suspending the membrane pellets in lysis buffer containing 0.3 M NaCl, 50 mM Tris-HCl (pH 7.6), 0.5% Triton X-100, and the same concentration of protease inhibitors as above. […] The protein concentrations of the combined supernatants were determined using the PIERCE™ BCA protein assay (THERMO SCIENTIFIC™, Rockford, Ill.). […] As a loading control, total protein per sample was determined using BIO-RAD™ Stain Free SDS-PAGE gel technology. UV-activated protein fluorescence was imaged on a CHEMIDOC™ MP (BIO-RAD™). […] The volume (intensity) of each protein species was determined and normalized to total protein using Image Lab software (BIO-RAD™)."}, "[1]": {"details": "aged Fisher 344 rats, 8-AG 5 mg kg/day via drinking water, 1 month"}}, "note": "“Also recorded” adds a separate entry of the source."}
{"smiles": "Nc1nc2[nH]c(N)nc2c(=O)[nH]1", "note": "[8-AG, 8-Aminoguanine]", "values": [{"measurement": "MCP-1 mRNA expression in bladder", "setting": "MCP-1", "value": "suppressed; also recorded: near the detection limit; also recorded: nearly abolished"}, {"measurement": "intercontraction interval", "setting": "aged rats; aged Fischer 344 rats, oral 8-AG 5 mg/kg/day, 6 weeks", "value": "attenuates"}, {"measurement": "intercontraction interval", "setting": "aged rats; [1]", "value": "attenuates"}, {"measurement": "senescence marker p16 in bladder smooth muscle", "setting": "p16; [1]", "value": "restored to a younger state; also recorded: restored to levels similar to the younger state"}, {"measurement": "senescence marker p16 in detrusor smooth muscle", "setting": "p16; aged rats, oral 8-AG 5 mg/kg/day, 6 weeks", "value": "levels similar to the younger state; also recorded: restored these biomarkers to that of a younger state"}, {"measurement": "V2 vasopressin receptor in kidney", "setting": "AVP receptor V2", "value": "restored to a younger state; also recorded: restored to levels similar to the younger state"}]}
